Experimental data published in the supplement of paper PMC10307832.

Experiments:
Assay in all cases: relative viability (nuclei count vs DMSO), 5 days (fraction); higher = more cells survive
[1] = compound: CCN1C(=O)C2=CC(=C(N=C2N(C1=O)C3CC3)N)C(=O)N
How it was run: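 Five library-drug doses spaced by √10 were pinned onto vehicle-anchored 1536-well plates of lung cancer cell lines that had been kept overnight at 37 °C. Cells went 5 days without medium change, then were fixed, permeabilised and Hoechst-stained together, imaged at 4× and counted by MetaXpress. Viability is the ratio of treated-well to vehicle-well nuclei, taken as a median over plates. Plates required control CV below 25% and at least one doubling.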

[2] = compound: CCN1C(=O)C2=CC(=C(N=C2N(C1=O)C3CC3)N)C(=O)N + O=C(c1cc(Cc2n[nH]c(=O)c3ccccc23)ccc1F)N1CCN(C(=O)C2CC2)CC1 [Olaparib] (partner 8 µM)
How it was run: (§1)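 Cells from lung cancer lines were seeded into 1536-well plates and, one day later, dosed by pin tool. Treatments were either a single drug or a fixed dose of an anchor drug with five library-drug doses (not always all listed) in √10 steps. After 5 days, nuclei were stained in a one-step fixation (final 0.05% Triton X-100, 1% formaldehyde, 1 ug/ml Hoechst) and counted on 4× images, and relative viability is the treated-to-vehicle nuclei ratio, as the median of duplicate plates.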

[3] = compound: CCN1C(=O)C2=CC(=C(N=C2N(C1=O)C3CC3)N)C(=O)N + Cc1nc(Nc2ncc(C(=O)Nc3c(C)cccc3Cl)s2)cc(N2CCN(CCO)CC2)n1 [Dasatinib] (partner 0.075 µM)
How it was run: as §1

[4] = compound: CCN1C(=O)C2=CC(=C(N=C2N(C1=O)C3CC3)N)C(=O)N + Cc1nc(NC(=O)N2CCC[C@H]2C(N)=O)sc1-c1ccnc(C(C)(C)C(F)(F)F)c1 [Alpelisib] (partner 2 µM)
How it was run: as §1

[5] = compound: CCN1C(=O)C2=CC(=C(N=C2N(C1=O)C3CC3)N)C(=O)N + C[C@@H](Oc1cc(-c2cnn(C3CCNCC3)c2)cnc1N)c1c(Cl)ccc(F)c1Cl [Crizotinib] (partner 1 µM)
How it was run: as §1

Row | Cell Line | relative viability ([1]; 0.253 µM) | relative viability ([1]; 0.8 µM) | relative viability ([1]; 2.53 µM) | relative viability ([1]; 8 µM) | relative viability ([2]; first compound 0.253 µM) | relative viability ([2]; first compound 0.8 µM) | relative viability ([2]; first compound 2.53 µM) | relative viability ([2]; first compound 8 µM) | relative viability ([3]; first compound 0.253 µM) | relative viability ([3]; first compound 0.8 µM) | relative viability ([3]; first compound 2.53 µM) | relative viability ([3]; first compound 8 µM) | relative viability ([4]; first compound 0.253 µM) | relative viability ([4]; first compound 0.8 µM) | relative viability ([4]; first compound 2.53 µM) | relative viability ([4]; first compound 8 µM) | relative viability ([5]; first compound 0.253 µM) | relative viability ([5]; first compound 0.8 µM) | relative viability ([5]; first compound 2.53 µM) | relative viability ([5]; first compound 8 µM)
1 | HCC-15 | 0.943 | 1.02 | 0.994 | 1.03 | 0.749 | 0.774 | 0.651 | 0.725 | 0.634 | 0.598 | 0.61 | 0.598 | 0.921 | 0.959 | 0.873 | 0.986 | 0.789 | 0.829 | 0.909 | 0.872
2 | HCC-44 | 1.01 | 0.958 | 1.03 | 0.972 | 0.982 | 0.976 | 0.999 | 0.975 | – | – | – | – | 0.829 | 0.802 | 0.778 | 0.784 | 0.844 | 0.826 | 0.772 | 0.851
3 | HCC-78 | 0.947 | 0.939 | 1.04 | 0.994 | 0.807 | 0.902 | 0.691 | 0.959 | 0.368 | – | 0.595 | 0.365 | 0.299 | 0.337 | 0.31 | 0.467 | 0.349 | 0.327 | 0.292 | 0.379
4 | HCC-366 | 0.981 | 0.968 | 0.996 | 1.03 | 0.351 | 0.361 | 0.361 | 0.37 | – | 0.656 | 0.518 | 0.611 | 0.442 | 0.505 | 0.456 | 0.468 | 0.615 | 0.6 | 0.537 | 0.968
5 | HCC-827 | 1.1 | 1.02 | 1.03 | 1.01 | 0.681 | 0.679 | 0.584 | 0.699 | 0.348 | 0.348 | 0.266 | 0.284 | 0.915 | 0.964 | 0.941 | 0.88 | 0.933 | 0.98 | 0.866 | 0.885
6 | HOP-62 | 1.01 | 1.03 | 1 | 1.03 | 0.349 | 0.488 | 0.41 | 0.572 | 0.715 | 0.614 | 0.695 | 0.598 | 1 | 1.06 | 0.778 | 0.964 | 0.891 | 0.966 | 0.983 | 0.867
7 | IA-LM | 0.952 | 0.75 | 0.877 | 0.825 | 0.92 | 0.818 | 0.739 | 0.845 | – | – | – | – | 0.743 | 0.816 | 0.584 | 0.696 | 0.816 | 0.662 | 0.797 | 1.14
8 | LC-2-ad | 0.915 | 0.937 | 1 | 0.977 | 0.803 | 0.892 | 0.736 | 0.772 | 0.537 | 0.526 | 0.652 | 0.698 | 0.838 | 0.897 | 0.881 | 0.914 | 0.217 | 0.433 | 0.437 | 0.537
9 | LCLC-97TM1 | 0.936 | 0.792 | 0.977 | 0.879 | 0.422 | 0.397 | 0.318 | 0.419 | 0.793 | 0.948 | 0.855 | 0.883 | 0.258 | – | – | 0.275 | 0.366 | – | – | 0.316
10 | LCLC-103H | 1.02 | 0.928 | 0.924 | 0.999 | 0.739 | 0.754 | 0.74 | 0.772 | 0.453 | 0.426 | 0.457 | 0.445 | 0.935 | 0.962 | 0.907 | 0.934 | 1.02 | 1.07 | 1.02 | 1.02
11 | NCI-H522 | 0.876 | 0.985 | 0.983 | 0.906 | 0.6 | 0.678 | 0.555 | 0.65 | 0.761 | 0.858 | 0.992 | 0.753 | – | – | – | – | – | – | – | –
12 | NCI-H1395 | 0.935 | 0.972 | 1.08 | 0.921 | 0.43 | 0.481 | 0.457 | 0.491 | 0.395 | 0.392 | 0.405 | 0.405 | 0.958 | 1.04 | 1.01 | 0.976 | – | – | – | –
13 | NCI-H1650 | 0.937 | 0.932 | 0.901 | 0.877 | 0.707 | 0.665 | 0.714 | 0.733 | 0.279 | 0.264 | 0.308 | 0.329 | – | – | – | – | 0.982 | 0.897 | 1.11 | 1.2
14 | NCI-H1793 | 0.808 | 1.02 | 0.815 | 1.12 | 0.921 | 0.731 | 0.851 | 0.875 | – | 0.434 | 0.32 | 0.419 | 0.715 | 0.644 | – | 0.63 | – | – | – | –
15 | SW 900 | 0.672 | 0.717 | 0.785 | 0.786 | 0.84 | 1.1 | 0.955 | 0.928 | 0.447 | 0.599 | 0.68 | 0.511 | – | – | – | – | – | – | – | –
